Measurements from patent publication US11466044B2 (WAYNE STATE UNIVERSITY, priority 2017, dated 2022).
Values after ≈ are worked out from the molar mass of the structure shown. Like-named read-outs stand apart in the source and are kept apart here.

How the values were obtained:
E coli wild type = experiment: MIC by broth microdilution, wild type E coli; format: cell-based; settings: for MIC: Escherichia coli
[1] = test system: E coli carrying specific resistance determinants; experiment: MIC by broth microdilution, E coli carrying specific resistance determinants; format: cell-based; settings: for MIC APH(3)-VI / MIC APH(3′)-I / MIC APH(3′)-II / MIC APH(3′)-III: Table 3 (Example 1); for MIC: Escherichia coli
[2] = test system: wild type bacterial ribosomes; experiment: in-vitro translation assay, bacterial ribosomes; format: biochemical; settings: bacterial ribosome, read-out: IC50 Bac
Excerpt: (§1) The antiribosomal activity of these compounds was investigated with cell-free translation assays using both wild type bacterial ribosomes and hybrid ribosomes carrying eukaryotic decoding A sites enabling the prediction of selectivity.

[3] = test system: cytosolic ribosome (human chimeric); format: biochemical; settings: cytosolic, read-out: IC50 Cyt
Excerpt: as §1

[4] = test system: mitochondrial ribosome (human chimeric); format: biochemical; settings: mitochondrial, read-out: IC50 Mit
Excerpt: as §1

MRSA = experiment: MIC by broth microdilution, MRSA isolates; format: cell-based; settings: Table 1 (Example 2)
P aeruginosa = experiment: MIC by broth microdilution, P aeruginosa isolates; format: cell-based, Pseudomonas aeruginosa; settings: Table 1 (Example 2); for MIC50: Pseudomonas aeruginosa
M. smegmatis SZ380 = experiment: MIC by broth microdilution, M. smegmatis; settings: strain SZ380 Mycobacterium smegmatis
[5] = ATCC25922, strain AG212 E. coli (ATCC25922), read-out: MIC AG212 E. coli

For `NC[C@H]1O[C@H](O[C@H]2[C@H](O[C@@H]3O[C@H](CO)[C@@H](O)[C@H]3O)[C@@H](O)[C@H](N)C[C@@H]2N)[C@H](N)C[C@@H]1O` [Compound 047], the “MIC WT” value (E coli wild type; Table 3 (Example 1)) was 2 to 4 µg/mL, the “MIC APH(3)-VI” value [1] was 4 µg/mL (≈ 9.12 µM) and the “MIC APH(3′)-I” value [1] was >64 µg/mL. For the same compound, the “MIC APH(3′)-II” value [1] was 2 to 4 µg/mL, the “MIC APH(3′)-III” value [1] was >64 µg/mL and the IC50 ([2]; Table 3 (Example 1)) was 0.1 µM. The IC50 ([3]; Table 3 (Example 1)) was 293 µM and the IC50 ([4]; Table 3 (Example 1)) was 325 µM.
`CC1CC(O)C2O[C@H](O[C@@H]3C(N)C[C@@H](N)C(O)[C@H]3O[C@@H]3O[C@H](CO)[C@H](O[C@H]4O[C@@H](CN)[C@@H](O)C(O)C4N)C3O)C(N)[C@@H](O)[C@@H]2O1` (stereo partly drawn) [Compound 109, 4-O-(2′-Amino-4′,8′-anhydro-2′,7′,9′-trideoxy-D-erythro-α-D-gluco-nonapyranosyl)-5-O-[3-O-(2,6-diamino-2,6-dideoxy-β-L-idopyranosyl)-β-D-ribofuranosyl]-2-deoxystreptamine.5AcOH] was tested, and the MIC50 (MRSA; Staphylococcus aureus, MRSA, strain AG42, read-out: MIC50 MRSA AG42) was 16 to 32 µg/mL (≈ 24.4 to 48.8 µM), the “MIC50 MRSA AG38” value (MRSA; strain AG38) was 32 µg/mL (≈ 48.8 µM) and the “MIC50 MRSA AG39” value (MRSA; strain AG39) was 32 to 64 µg/mL. The “MIC50 MRSA AG44” value (MRSA; strain AG44) was 32 µg/mL (≈ 48.8 µM), the “MIC50 E coli BM13 (AG06) wt” value (E coli wild type; BM13 (AG06) wt, Table 2A (Example 2)) was 16 to 32 µg/mL and the “MIC WT” value (E coli wild type; Table 3 (Example 2)) was 16 to 32 µg/mL. The “MIC50 E coli pH430 WT” value (E coli wild type; pH430 WT, Table 2B (Example 2)) was 16-32 μg/ml, the “MIC50 E coli AG01” value (E coli wild type; strain AG01, Table 1 (Example 2)) was 128 µg/mL (≈ 195 µM) and the “MIC50 E coli AG03” value (E coli wild type; strain AG03, Table 1 (Example 2)) was 64 to 128 µg/mL. For the same compound, the “MIC50 E coli AG55” value (E coli wild type; strain AG55, Table 1 (Example 2)) was 64 to 128 µg/mL, the MIC50 (P aeruginosa; strain AG33, read-out: MIC50 P aeruginosa AG33) was > 128 µg/mL and the MIC50 (P aeruginosa; strain AG86, read-out: MIC50 P aeruginosa AG86) was > 128 µg/mL. For the same compound, the “MIC50 P aeruginosa AG31” value (P aeruginosa; strain AG31) was >128 µg/mL, the “MIC50 P aeruginosa AG32” value (P aeruginosa; strain AG32) was >128 µg/mL and the IC50 ([2]; Table 3 (Example 2)) was 0.47 µM. The IC50 ([3]; Table 3 (Example 2)) was 169 µM, the IC50 ([4]; Table 3 (Example 2)) was 193 µM and the “MIC SZ380 M. smegmatis” value (M. smegmatis SZ380) was 16 µg/mL (≈ 24.4 µM).
`CC[C@@H]1C(CO)O[C@H](O[C@@H]2C(N)C[C@@H](N)C(O)[C@H]2O[C@@H]2O[C@H](CO)[C@H](O[C@H]3OC(CN)[C@@H](O)C(O)C3N)C2O)[C@@H](N)C1O` (stereo partly shown) [Compound 206] showed an MIC (E coli wild type; [5]) of 8 µg/mL (≈ 12.7 µM).
`NCC1O[C@H](O[C@@H]2C(O)[C@H](O[C@@H]3C(O)[C@H](N)CC(N)[C@H]3O[C@H]3OC4C(O)CO[C@H]4[C@H](O)C3N)O[C@@H]2CO)C(N)[C@H](O)[C@@H]1O` (stereo partly shown) [Compound 203] was tested, and the MIC (E coli wild type; [5]) was 32 µg/mL (≈ 51 µM).
For `NC[C@@H]1O[C@H](O[C@@H]2C(O)[C@H](O[C@@H]3C(O)[C@H](N)CC(N)[C@H]3O[C@H]3OC4C(O)CCO[C@H]4[C@H](O)C3N)O[C@@H]2CO)C(N)C(O)[C@@H]1O` (stereo partly shown) [Compound 211], the MIC (E coli wild type; [5]) was 32 to 64 µg/mL (≈ 49.9 to 99.7 µM).
Compound `NCC1O[C@H](O[C@@H]2C(O)[C@H](O[C@@H]3C(O)[C@H](N)CC(N)[C@H]3O[C@H]3OC4C(O)CO[C@H]4[C@H](O)C3N)O[C@@H]2CO)C(N)[C@H](O)[C@@H]1O` (stereo partly shown) [DC-204] has an MIC (E coli wild type; read-out: MIC WT, WT, Table 3 (Example 2)) of 8 µg/mL (≈ 12.7 µM), an MIC ([1]; read-out: MIC AAC(6′)) of 16 µg/mL (≈ 25.5 µM) and an MIC ([1]; read-out: MIC ANT(4′)) of 4 to 8 µg/mL (≈ 6.37 to 12.7 µM). For the same compound, the MIC ([1]; read-out: MIC APH(3′)-II) was 16 to 32 µg/mL (≈ 25.5 to 51 µM), the MIC ([1]; read-out: MIC APH(3′)-VI) was 16 µg/mL (≈ 25.5 µM) and the IC50 ([3]; Table 3 (Example 2)) was 131 µM. It also gave an IC50 ([4]; Table 3 (Example 2)) of 0.2 µM.
`NC[C@@H]1O[C@H](O[C@H]2[C@@H](O)[C@H](O[C@@H]3[C@@H](O)[C@H](N)C[C@H](N)[C@H]3O[C@H]3O[C@H](CN)[C@@H](O)C[C@H]3N)O[C@@H]2CO)[C@H](N)[C@@H](O)[C@@H]1O` [Compound 140] was tested, and the “MIC WT” value (E coli wild type; Table 3 (Example 1)) was 1 µg/mL (≈ 1.67 µM), the “MIC AG160 E. coli WT” value (E coli wild type; clinical isolate AG160 WT, Table 2 (Example 4)) was 1 µg/mL (≈ 1.67 µM) and the “MIC pH430 E. coli WT” value (E coli wild type; engineered strain pH430 WT, Table 2 (Example 4)) was 1 μg/ml. For the same compound, the “MIC APH(3)-VI” value [1] was 1 µg/mL (≈ 1.67 µM), the “MIC APH(3′)-I” value [1] was >32 µg/mL and the “MIC APH(3′)-II” value [1] was 1 µg/mL (≈ 1.67 µM). The “MIC APH(3′)-III” value [1] was 32 µg/mL (≈ 53.5 µM), the “MIC AG163 E. coli APH(3′)-I” value ([1]; clinical isolate AG163 APH(3′)-I, Table 2 (Example 4)) was 64 µg/mL (≈ 107 µM) and the “MIC AG166 E. coli APH(3′)-II” value ([1]; clinical isolate AG166 APH(3′)-II, Table 2 (Example 4)) was 1 µg/mL (≈ 1.67 µM). The “MIC AG037 E. coli APH(3′)-III” value ([1]; engineered strain AG037 APH(3′)-III, Table 2 (Example 4)) was 32 µg/mL (≈ 53.5 µM), the “MIC pH421 E. coli APH(3′)-I” value ([1]; engineered strain pH421 APH(3′)-I, Table 2 (Example 4)) was >32 μg/ml and the “MIC pH422 E. coli APH(3′)-II” value ([1]; engineered strain pH422 APH(3′)-II, Table 2 (Example 4)) was 1 μg/ml. For the same compound, the “MIC pH423 E. coli APH(3′)-VI” value ([1]; engineered strain pH423 APH(3′)-VI, Table 2 (Example 4)) was 1 μg/ml, the IC50 ([2]; Table 3 (Example 1)) was 0.04 µM and the IC50 ([3]; Table 3 (Example 1)) was 66 µM. The IC50 ([4]; Table 3 (Example 1)) was 4.6 µM.
